Reference: ChEMBL document CHEMBL1150976, “The selectivity of protein kinase inhibitors: a further update” (Biochem J, 2007)

Key:
[1] = target: Mitogen-activated protein kinase 14 (Homo sapiens, UniProt Q16539); assay: Percentage p38alpha activity remaining in the presence of 25uM inhibitor
[2] = target: RAC-alpha serine/threonine-protein kinase (Homo sapiens) (UniProt P31749); assay: Percentage PKBalpha activity remaining in the presence of 25uM inhibitor
[3] = target: RAC-beta serine/threonine-protein kinase (Homo sapiens) (UniProt P31751); assay: Percentage PKBbeta activity remaining in the presence of 25uM inhibitor
RAC-beta serine/threonine-protein kinase (Homo sapiens), sequence (P31751 whole entry): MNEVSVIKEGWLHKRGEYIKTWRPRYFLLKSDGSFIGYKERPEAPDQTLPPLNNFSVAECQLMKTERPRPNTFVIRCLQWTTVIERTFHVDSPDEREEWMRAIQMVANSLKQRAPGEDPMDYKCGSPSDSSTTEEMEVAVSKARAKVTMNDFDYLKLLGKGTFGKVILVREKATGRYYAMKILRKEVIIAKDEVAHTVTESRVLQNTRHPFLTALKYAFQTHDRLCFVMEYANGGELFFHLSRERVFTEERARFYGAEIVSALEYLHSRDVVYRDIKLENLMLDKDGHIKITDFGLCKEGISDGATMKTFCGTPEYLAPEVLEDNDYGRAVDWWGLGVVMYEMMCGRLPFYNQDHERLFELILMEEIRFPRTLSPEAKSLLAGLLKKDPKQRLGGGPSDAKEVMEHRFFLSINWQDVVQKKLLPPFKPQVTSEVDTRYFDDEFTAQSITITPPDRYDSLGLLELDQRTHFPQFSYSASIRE

[4] = target: T1, Serine/threonine-protein kinase BRSK2 (Homo sapiens) (UniProt Q8IWQ3); assay: Percentage BRSK2 activity remaining in the presence of 25uM inhibitor
T1 sequence (whole entry): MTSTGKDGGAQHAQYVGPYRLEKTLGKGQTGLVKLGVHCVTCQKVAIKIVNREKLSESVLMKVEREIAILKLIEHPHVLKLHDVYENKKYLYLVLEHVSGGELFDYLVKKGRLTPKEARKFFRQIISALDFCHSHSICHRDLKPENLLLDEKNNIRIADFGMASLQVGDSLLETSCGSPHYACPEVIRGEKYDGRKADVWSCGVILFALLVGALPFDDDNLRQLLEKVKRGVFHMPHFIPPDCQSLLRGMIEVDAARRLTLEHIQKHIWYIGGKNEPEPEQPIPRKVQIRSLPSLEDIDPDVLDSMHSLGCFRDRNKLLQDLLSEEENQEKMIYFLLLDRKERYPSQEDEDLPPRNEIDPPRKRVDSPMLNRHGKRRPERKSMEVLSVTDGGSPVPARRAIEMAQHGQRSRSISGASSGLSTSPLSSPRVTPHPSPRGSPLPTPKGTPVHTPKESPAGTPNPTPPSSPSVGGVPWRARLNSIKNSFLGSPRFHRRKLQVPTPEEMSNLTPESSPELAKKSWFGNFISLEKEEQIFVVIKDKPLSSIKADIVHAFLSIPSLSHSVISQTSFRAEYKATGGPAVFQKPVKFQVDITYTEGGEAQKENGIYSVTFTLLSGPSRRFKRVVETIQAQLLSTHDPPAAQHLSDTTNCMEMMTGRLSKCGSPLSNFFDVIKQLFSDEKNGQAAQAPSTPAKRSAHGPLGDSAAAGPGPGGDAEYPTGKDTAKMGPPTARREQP

[5] = target: MAP kinase-activated protein kinase 3 (Homo sapiens) (UniProt Q16644); assay: Percentage MAPKAPK3 activity remaining in the presence of […]uM inhibitor; conditions: at 25 µM
MAP kinase-activated protein kinase 3 (Homo sapiens), sequence (Q16644 whole entry, looked up): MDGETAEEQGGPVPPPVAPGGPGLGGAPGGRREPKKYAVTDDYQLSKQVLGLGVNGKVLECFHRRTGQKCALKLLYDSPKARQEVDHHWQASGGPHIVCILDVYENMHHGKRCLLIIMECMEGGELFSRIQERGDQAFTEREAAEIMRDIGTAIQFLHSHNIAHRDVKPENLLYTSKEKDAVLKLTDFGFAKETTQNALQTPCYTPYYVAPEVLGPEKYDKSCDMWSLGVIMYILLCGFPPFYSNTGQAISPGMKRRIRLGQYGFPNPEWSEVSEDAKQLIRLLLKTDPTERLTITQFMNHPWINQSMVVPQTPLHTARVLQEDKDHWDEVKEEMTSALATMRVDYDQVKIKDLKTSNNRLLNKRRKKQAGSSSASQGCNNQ

[6] = target: Calcium/calmodulin-dependent protein kinase type 1 (Homo sapiens) (UniProt Q14012); assay: Percentage CaMK1 activity remaining in the presence of 25uM inhibitor
Calcium/calmodulin-dependent protein kinase type 1 (Homo sapiens), sequence (Q14012 whole entry, looked up): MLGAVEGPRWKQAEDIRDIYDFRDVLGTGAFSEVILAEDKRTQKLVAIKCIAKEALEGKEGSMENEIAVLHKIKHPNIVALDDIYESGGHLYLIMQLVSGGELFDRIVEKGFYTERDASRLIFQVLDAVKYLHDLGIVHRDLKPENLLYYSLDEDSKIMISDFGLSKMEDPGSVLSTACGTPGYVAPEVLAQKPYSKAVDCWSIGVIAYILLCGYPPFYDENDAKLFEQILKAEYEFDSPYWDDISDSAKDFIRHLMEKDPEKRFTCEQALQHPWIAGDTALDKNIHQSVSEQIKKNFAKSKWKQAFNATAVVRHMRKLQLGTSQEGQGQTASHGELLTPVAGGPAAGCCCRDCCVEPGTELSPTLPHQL

[7] = target: T2, Aurora kinase C (Homo sapiens) (UniProt Q9UQB9); assay: Percentage Aurora C activity remaining in the presence of 25uM inhibitor
T2 sequence (whole entry): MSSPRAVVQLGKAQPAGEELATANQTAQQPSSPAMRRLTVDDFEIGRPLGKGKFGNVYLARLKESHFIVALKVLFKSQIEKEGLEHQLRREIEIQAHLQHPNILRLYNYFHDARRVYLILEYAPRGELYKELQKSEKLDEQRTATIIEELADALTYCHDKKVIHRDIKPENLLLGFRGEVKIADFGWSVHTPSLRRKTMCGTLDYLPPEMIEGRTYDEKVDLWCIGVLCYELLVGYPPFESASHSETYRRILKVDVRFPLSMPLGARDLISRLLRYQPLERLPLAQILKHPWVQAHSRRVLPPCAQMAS

[8] = target: Serine/threonine-protein kinase Nek6 (Homo sapiens) (UniProt Q9HC98); assay: Percentage NEK6 activity remaining in the presence of 25uM inhibitor
Serine/threonine-protein kinase Nek6 (Homo sapiens), sequence (Q9HC98 whole entry): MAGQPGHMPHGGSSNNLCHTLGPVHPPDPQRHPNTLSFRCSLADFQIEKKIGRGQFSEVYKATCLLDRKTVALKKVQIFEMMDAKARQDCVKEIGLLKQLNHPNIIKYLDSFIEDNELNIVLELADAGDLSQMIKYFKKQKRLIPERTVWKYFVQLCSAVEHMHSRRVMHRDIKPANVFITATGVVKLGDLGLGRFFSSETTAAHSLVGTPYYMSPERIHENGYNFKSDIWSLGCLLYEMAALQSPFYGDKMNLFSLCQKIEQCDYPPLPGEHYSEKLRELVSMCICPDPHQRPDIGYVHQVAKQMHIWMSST

[9] = target: T3, MAP kinase-activated protein kinase 5 (Homo sapiens) (UniProt Q8IW41); assay: Percentage PRAK activity remaining in the presence of 25uM inhibitor
T3 sequence (whole entry): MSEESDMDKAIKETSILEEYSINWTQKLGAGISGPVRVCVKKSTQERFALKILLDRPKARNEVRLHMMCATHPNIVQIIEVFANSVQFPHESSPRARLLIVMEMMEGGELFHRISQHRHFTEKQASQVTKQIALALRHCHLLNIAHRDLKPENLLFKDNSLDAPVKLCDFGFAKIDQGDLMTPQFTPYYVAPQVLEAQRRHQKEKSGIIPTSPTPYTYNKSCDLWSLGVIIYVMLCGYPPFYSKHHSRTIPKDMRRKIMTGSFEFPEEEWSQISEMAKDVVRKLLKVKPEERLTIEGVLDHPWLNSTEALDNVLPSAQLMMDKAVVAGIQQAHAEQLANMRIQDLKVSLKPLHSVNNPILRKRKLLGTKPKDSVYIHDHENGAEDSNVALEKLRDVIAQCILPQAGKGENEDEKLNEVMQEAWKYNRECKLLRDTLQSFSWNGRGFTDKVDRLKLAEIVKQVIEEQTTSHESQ

[10] = target: Serine/threonine-protein kinase PAK 6 (Homo sapiens) (UniProt Q9NQU5); assay: Percentage PAK6 activity remaining in the presence of 25uM inhibitor
Serine/threonine-protein kinase PAK 6 (Homo sapiens), sequence (Q9NQU5 whole entry, looked up): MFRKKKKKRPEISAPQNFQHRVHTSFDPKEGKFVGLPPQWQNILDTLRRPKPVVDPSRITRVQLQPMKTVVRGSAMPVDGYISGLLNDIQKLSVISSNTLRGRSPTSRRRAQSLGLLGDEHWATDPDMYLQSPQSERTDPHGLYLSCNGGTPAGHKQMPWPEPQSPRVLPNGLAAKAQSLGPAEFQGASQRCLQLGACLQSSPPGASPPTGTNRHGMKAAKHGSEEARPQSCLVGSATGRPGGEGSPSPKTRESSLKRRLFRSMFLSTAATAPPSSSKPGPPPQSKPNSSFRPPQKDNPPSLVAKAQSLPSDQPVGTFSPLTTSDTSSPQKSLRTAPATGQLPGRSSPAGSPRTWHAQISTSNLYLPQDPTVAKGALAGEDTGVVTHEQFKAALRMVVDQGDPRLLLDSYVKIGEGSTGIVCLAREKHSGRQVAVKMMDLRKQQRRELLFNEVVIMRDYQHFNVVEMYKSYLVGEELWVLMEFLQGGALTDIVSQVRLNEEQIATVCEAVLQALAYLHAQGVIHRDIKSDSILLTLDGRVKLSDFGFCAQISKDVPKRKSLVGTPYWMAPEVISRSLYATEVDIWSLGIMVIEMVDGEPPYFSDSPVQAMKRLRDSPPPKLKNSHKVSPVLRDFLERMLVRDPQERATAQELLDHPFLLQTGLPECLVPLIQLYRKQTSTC

[11] = target: Ribosomal protein S6 kinase alpha-5 (Homo sapiens) (UniProt O75582); assay: Percentage MSK1 activity remaining in the presence of 25uM inhibitor
Ribosomal protein S6 kinase alpha-5 (Homo sapiens), sequence (O75582 whole entry, looked up): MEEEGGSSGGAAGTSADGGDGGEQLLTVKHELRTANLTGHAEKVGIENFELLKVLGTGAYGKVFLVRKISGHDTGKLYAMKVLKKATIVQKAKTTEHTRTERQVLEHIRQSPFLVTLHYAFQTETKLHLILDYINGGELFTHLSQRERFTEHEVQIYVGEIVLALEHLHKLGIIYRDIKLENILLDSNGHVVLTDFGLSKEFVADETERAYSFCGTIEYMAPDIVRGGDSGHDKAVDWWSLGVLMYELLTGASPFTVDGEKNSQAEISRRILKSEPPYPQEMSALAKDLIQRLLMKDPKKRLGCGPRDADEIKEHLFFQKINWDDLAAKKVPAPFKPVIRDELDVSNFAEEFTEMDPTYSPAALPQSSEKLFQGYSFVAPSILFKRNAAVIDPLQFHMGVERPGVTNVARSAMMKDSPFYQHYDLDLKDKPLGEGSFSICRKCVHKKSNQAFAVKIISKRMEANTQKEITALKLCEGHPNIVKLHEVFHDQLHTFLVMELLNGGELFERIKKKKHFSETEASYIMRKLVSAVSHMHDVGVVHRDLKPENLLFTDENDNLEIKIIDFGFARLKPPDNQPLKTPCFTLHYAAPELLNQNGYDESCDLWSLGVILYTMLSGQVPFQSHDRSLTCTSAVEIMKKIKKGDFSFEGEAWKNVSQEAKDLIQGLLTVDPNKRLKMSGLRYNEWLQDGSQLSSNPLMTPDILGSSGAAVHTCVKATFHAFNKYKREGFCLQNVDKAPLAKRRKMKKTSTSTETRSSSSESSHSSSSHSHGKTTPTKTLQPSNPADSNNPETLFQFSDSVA

[12] = target: Serine/threonine-protein kinase Chk2 (Homo sapiens) (UniProt O96017); assay: Percentage CHK2 activity remaining in the presence of 25uM inhibitor
Serine/threonine-protein kinase Chk2 (Homo sapiens), sequence (O96017 whole entry): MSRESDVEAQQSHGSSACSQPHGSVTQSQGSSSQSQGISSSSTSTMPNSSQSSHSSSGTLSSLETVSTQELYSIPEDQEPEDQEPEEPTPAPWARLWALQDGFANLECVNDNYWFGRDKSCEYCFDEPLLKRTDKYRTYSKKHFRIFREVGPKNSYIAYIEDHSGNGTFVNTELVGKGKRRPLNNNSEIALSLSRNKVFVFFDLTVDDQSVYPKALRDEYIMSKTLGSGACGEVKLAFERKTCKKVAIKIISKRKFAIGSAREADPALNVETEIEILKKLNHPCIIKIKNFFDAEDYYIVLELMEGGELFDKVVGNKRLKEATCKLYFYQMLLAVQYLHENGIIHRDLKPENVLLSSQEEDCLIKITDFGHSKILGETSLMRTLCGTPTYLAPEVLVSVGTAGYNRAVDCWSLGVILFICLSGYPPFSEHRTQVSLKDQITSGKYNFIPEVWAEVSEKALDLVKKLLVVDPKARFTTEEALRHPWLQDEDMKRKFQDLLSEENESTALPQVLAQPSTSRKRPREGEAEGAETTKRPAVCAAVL

[13] = target: Glycogen synthase kinase-3 beta (Homo sapiens, UniProt P49841); assay: Percentage GSK3-beta activity remaining in the presence of 25uM inhibitor
Glycogen synthase kinase-3 beta, sequence (P49841 whole entry, looked up): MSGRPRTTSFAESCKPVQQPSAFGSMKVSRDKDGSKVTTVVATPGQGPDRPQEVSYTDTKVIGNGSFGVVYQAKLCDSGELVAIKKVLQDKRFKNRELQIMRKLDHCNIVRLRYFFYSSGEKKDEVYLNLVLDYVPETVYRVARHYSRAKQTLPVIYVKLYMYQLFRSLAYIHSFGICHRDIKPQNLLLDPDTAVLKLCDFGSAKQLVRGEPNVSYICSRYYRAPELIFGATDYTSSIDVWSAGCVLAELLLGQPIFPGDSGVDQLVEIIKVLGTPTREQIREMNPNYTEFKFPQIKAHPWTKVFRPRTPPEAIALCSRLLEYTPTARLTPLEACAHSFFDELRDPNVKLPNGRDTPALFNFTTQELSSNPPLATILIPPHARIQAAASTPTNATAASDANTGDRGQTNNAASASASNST

[14] = target: T4, Serine/threonine-protein kinase Sgk1 (Homo sapiens) (UniProt O00141); assay: Percentage SGK1 activity remaining in the presence of 25uM inhibitor
T4 sequence (whole entry): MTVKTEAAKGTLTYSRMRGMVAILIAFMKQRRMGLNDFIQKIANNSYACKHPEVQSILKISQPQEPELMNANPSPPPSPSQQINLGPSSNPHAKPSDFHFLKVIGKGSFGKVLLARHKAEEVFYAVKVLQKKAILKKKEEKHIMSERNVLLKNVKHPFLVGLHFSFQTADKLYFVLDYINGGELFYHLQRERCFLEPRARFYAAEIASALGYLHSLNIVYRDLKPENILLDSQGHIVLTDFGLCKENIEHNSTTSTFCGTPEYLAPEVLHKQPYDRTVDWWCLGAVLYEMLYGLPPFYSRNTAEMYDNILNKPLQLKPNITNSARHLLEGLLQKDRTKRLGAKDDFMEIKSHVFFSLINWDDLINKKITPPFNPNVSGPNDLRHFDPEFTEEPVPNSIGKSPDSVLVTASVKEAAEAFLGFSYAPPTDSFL

[15] = target: Mitogen-activated protein kinase 10 (Homo sapiens) (UniProt P53779); assay: Percentage JNK3 activity remaining in the presence of 25uM inhibitor

RAC-alpha serine/threonine-protein kinase (Homo sapiens), sequence (P31749 whole entry): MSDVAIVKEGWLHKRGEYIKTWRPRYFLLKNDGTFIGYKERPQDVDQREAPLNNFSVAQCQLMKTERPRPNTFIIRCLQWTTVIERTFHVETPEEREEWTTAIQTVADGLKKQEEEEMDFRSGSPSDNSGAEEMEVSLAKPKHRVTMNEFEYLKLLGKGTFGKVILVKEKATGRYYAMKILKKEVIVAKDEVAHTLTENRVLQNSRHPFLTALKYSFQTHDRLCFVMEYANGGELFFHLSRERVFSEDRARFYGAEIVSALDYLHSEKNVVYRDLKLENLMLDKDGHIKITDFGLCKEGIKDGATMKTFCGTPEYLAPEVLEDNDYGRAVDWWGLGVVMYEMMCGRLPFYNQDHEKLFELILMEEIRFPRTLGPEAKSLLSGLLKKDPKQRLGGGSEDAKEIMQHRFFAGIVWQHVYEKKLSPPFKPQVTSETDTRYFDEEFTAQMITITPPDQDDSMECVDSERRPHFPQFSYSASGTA
Mitogen-activated protein kinase 14, sequence (Q16539 whole entry): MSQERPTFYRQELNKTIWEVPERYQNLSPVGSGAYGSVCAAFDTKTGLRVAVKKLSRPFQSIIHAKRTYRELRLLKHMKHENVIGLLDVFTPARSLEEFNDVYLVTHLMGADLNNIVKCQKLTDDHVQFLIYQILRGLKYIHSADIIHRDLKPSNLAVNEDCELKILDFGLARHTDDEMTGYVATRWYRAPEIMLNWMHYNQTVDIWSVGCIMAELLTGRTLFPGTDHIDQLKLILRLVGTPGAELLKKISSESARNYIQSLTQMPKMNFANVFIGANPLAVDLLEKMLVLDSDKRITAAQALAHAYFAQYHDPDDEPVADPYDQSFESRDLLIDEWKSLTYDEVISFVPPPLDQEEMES

Structure (SMILES)	Activity [1]	Activity [2]	Activity [3]	Activity ([4]; filed as antagonist)	Activity [5]	Activity [6]	Activity [7]	Activity [8]	Activity [9]	Activity [10]	Activity ([11]; filed as antagonist)	Activity [12]	Activity [13]	Activity ([14]; filed as antagonist)	Activity [15]	Activity [4]	Activity [11]	Activity [14]
NCCNS(=O)(=O)c1ccc(Cl)c2ccncc12	103%	54%	89%	42%	86%	82%	95%	90%	81%	78%	42%	64%	75%	25%	103%	–	–	–
COc1cc(OC)c(/C=C2/C(=O)Nc3ccccc32)c(OC)c1	92%	94%	90%	–	94%	55%	94%	95%	82%	76%	–	76%	74%	–	93%	88%	88%	79%
